Assay results from US10723764B2, “Anti-microbial peptides and methods of use thereof” (priority 2011, dated 2020).
Read-outs that look alike come from different tables or passages of the source. Marks after values point to notes of the source that are not given here. Where a SMILES comes first, the peptide text is derived from it. Where no end group is shown, it is not given here. [ ]: non-standard residue; d: D form.

Columns and labels:
Gram-positive bacteria = system: Gram-positive bacteria; set-up: key: Y, Yes; N, No; details: data from the APD; cited from earlier work
Gram-negative bacteria = system: Gram-negative bacteria; set-up: key: Y, Yes; N, No; details: data from the APD; cited from earlier work
chymotrypsin = chymotrypsin (Bos taurus, UniProt P00766)
Protocol: One of the hurdles in developing peptide-based antimicrobials is peptide stability to protease (Wang, G. (2010) Antimicrobial Peptides: Discovery, Design and Novel Therapeutic Strategies, CABI, England). […] This was done by modifying the standard microdilution antimicrobial assays (Wang, G. (2008) J. Biol. Chem., 283:32637-32643). Specifically, the bacterial wells with a high peptide concentration (e.g. 100 μM) are duplicated (e.g., two for antimicrobial assays and two for protease stability assays). As an illustration, chymotrypsin was applied to the duplicated wells at a peptide:protease molar ratio of 25:1. Numerous peptides were screened in this manner.
To identify protease-resistant peptide templates, 30 synthetic peptides were screened (Table 9; Wang et al. (2008) Antimicrob. Agents Chemother., 52:3438-3440). A standard microdilution assay protocol (Li et al. (2006) J. Am. Chem. Soc., 128:5776-5785) was modified to include proteases into the duplicated wells with high concentrations of peptide so that both antimicrobial activity and protease stability could be evaluated simultaneously. […] (peptide:protease molar ratio of 40:1).

human erythrocytes = details: human red blood cells; Table 6
Protocol: Peptide hemolysis was assayed using an established protocol (Malmsten et al. (2011) PLoS One 6:e16400). In brief, fresh blood, obtained from the UNMC Blood Bank, was washed three times with PBS buffer and made into a 5% solution. To 90 μL of this solution, 10 μL of a peptide solution was added and incubated at 37° C. for one hour. After centrifugation at 13,000 rpm, aliquots of the supernatant were transferred to a fresh 96 well microplate. The absorbance of the solutions was measured at 545 nm to detect the amount of hemoglobin released. The percent lysis was calculated by assuming 100% release when treated with 2% Triton X-100 and no lysis (0%) when treated with PBS buffer. HL50 was the peptide concentration that caused 50% lysis of human erythrocytes. The cell selectivity (CS) indexes were calculated as the ratio of HL50 to the MIC of the peptide against S. aureus USA300.
The hemolytic effects of the six peptides were also compared on human red blood cells (hRBC) using an established protocol (Malmsten et al. (2011) PLoS One 6:e16400). […] A high TI indicates good cell selectivity.
Peptide hemolysis was assayed using an established protocol (Menousek et al. (2012) Int. J. Antimicrob. Agents 39:402-406; Malmsten et al. (2011) PLoS One 6:e16400). Briefly, blood cells were washed three times with phosphate-buffered saline (PBS) and were diluted to a 5% solution. Following peptide treatment, incubation at 37° C. for 1 hour and centrifugation at 13,000 rpm, aliquots of the supernatant were transferred to a fresh 96-well microplate. To assess peptide cytotoxicity, the amount of hemoglobin released was measured at 545 nm. Percent lysis was calculated by assuming 100% release when human blood cells were treated with 2% Triton X-100 and 0% release when they were incubated with PBS buffer.

[1] = E. coli K12 growth with chymotrypsin, peptide:protease molar ratio 25:1
[2] = antimicrobial assay with chymotrypsin, peptide:protease molar ratio 40:1, E. coli K12 for peptides inactive against S. aureus

| Molecule | Activity G+ (activity against Gram-positive bacteria) (Gram-positive bacteria) | Activity G− (activity against Gram-negative bacteria) (Gram-negative bacteria) | Stability (to chymotrypsin) (chymotrypsin; [2]) | also measured |
| --- | --- | --- | --- | --- |
| Temporin B: temporin, APD ID 95, SEQ ID NO: 19 (LLPIVGNLLKSLL; listed as Rana temporaria) | Y | N |  |  |
| GFKRIVQRIKDFLRNLV-NH2 [GF-17] |  |  | − | Stability (to chymotrypsin) (chymotrypsin; [1]): − |
| GFKRIVQRIKDFLRNL-NH2 [GF-16] |  |  | − |  |
| Temporin K: temporin, APD ID 100, SEQ ID NO: 20 (LLPNLLKSLL; listed as Rana temporaria) | Y | N |  |  |
| IKWKKLLRAAKRIL-NH2 [DASamP2] |  |  |  | HL50 (μM), concentration at which 50% red blood cells are lysed (human erythrocytes): 75 µM |
| FFGKVLKLIRKIF-NH2 [DASamP1] |  |  |  | HL50 (μM), concentration at which 50% red blood cells are lysed (human erythrocytes): 25 µM |
| Temporin-1Lb: temporin, APD ID 110, SEQ ID NO: 13 (NFLGTLINLAKKIM; listed as Rana luteiventris) | Y | N |  |  |
| CC[C@@H](C)[C@@H](NC(=O)[C@H](CCCNC(=N)N)NC(=O)[C@H](CCC(N)=O)NC(=O)[C@@H](NC(=O)[C@H](NC(=O)[C@H](CCCNC(=N)N)NC(=O)[C@H](CCCCN)NC(=O)[C@H](Cc1ccccc1)NC(=O)CN)[C@H](C)CC)C(C)C)C(=O)N[C@@H](CCCCN)C(=O)N[C@@H](CC(=O)O)C(=O)N[C@@H](Cc1ccccc1)C(=O)N[C@H](CC(C)C)C(=O)N[C@@H](CCCNC(=N)N)C(=O)N[C@@H](CC(N)=O)C(=O)N[C@@H](CC(C)C)C(=O)N[C@H](C(N)=O)C(C)C [GF-17d3] (H-GFKR[dI]VQR[dI]KDF[dL]RNLV-NH2; N-terminus assumed) |  |  | +^c | Stability (to chymotrypsin) (chymotrypsin; [1]): + |
| Temporin G: temporin, APD ID 101, SEQ ID NO: 12 (FFPVIGRILNGIL; listed as Rana temporaria) | Y/Y | Y/Y |  |  |
| Temporin-SHf: temporin, APD ID 1534, SEQ ID NO: 10 (FFFLSRIF; listed as Pelophylax saharicus) | Y/Y | Y/Y |  |  |
| FKRIVQRIKDFLRNLVPRTE [FK-21] |  |  | − |  |
| IWLTALKFLGKHAAKHLAKQQLSKL [Lycotoxin I, reference compound] |  |  |  | HL50 (μM), concentration at which 50% red blood cells are lysed (human erythrocytes): 125 µM |
| EKIGKEFKRIVQRIKDFLRN [EK-20] |  |  | − |  |
| Temporin E: temporin, APD ID 97, SEQ ID NO: 16 (VLPIIGNLLNSLL; listed as Rana temporaria) | Y | N |  |  |
| GKEFKRIVQRIKDFLRNLVPR [GK-21] |  |  | − | Stability (to chymotrypsin) (chymotrypsin; [1]): − |
| KIGKEFKRIVQRIKDFLRNLVP [KI-22] |  |  | − | Stability (to chymotrypsin) (chymotrypsin; [1]): − |
| Temporin C: temporin, APD ID 96, SEQ ID NO: 21 (LLPILGNLLNGLL; listed as Rana temporaria) | Y | N |  |  |
| Temporin H: temporin, APD ID 859, SEQ ID NO: 17 (LSPNLLKSLL; listed as Rana temporaria) | Y | N |  |  |
| GFKDLLKGAAKALVKTVLF-NH2 [Ascaphin-8, reference compound] |  |  |  | HL50 (μM), concentration at which 50% red blood cells are lysed (human erythrocytes): 45 µM |
| FFHHIFRGIVHVGKTIHRLVTG [Piscidin 1, reference compound] |  |  |  | HL50 (μM), concentration at which 50% red blood cells are lysed (human erythrocytes): 20 µM |
| GRFKRFRKKFKKLFKKLS-NH2 [BMAP-18] |  |  | − |  |
| GLLGLLGSVVSHVVPAIVGHF-NH2 [Maculatin 1.3, reference compound] |  |  |  | HL50 (μM), concentration at which 50% red blood cells are lysed (human erythrocytes): 25 µM |
